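Cultured in 96-well plates, cells were exposed to test compound for 48 hours across five concentrations. TGI marks complete inhibition of growth.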 A value given as a limit tells only on which side of the number the result lay.

Test systems include RPMI-8226 leukemia; UACC-62 melanoma; HOP-62 NSCLC; RXF 393 renal; SW-620 colon; NCI-H460 lung; U251 CNS; MCF7 breast; HOP-92 NSCLC; MDA-N; BT-549 breast.
What all share (assay): growth of human tumour cells (NCI), 48 h

For `Cc1cc(C)nc(NS(=O)(=O)c2ccc(NC(=O)c3cccc4c(N)c5ccccc5nc34)cc2)n1`, the TGI with RPMI-8226 leukemia, in the experiment on UACC-62 melanoma, in the experiment on HOP-62 NSCLC, with RXF 393 renal, in the experiment with SW-620 colon and with NCI-H460 lung was greater than 100 µM in each case. This compound returned a TGI with U251 CNS greater than 100 µM.
Take `C=CCC1C2CCC(O[Si](C(C)C)(C(C)C)C(C)C)(C(C(=O)OC)C2)C1O` (stereo unspecified): the TGI in the experiment with MCF7 breast, with RPMI-8226 leukemia, in the experiment on UACC-62 melanoma, in the experiment with HOP-62 NSCLC, in the experiment on HOP-92 NSCLC and in the experiment on MDA-N was greater than 100 µM each time. In addition, the TGI with SW-620 colon, in the experiment on NCI-H460 lung and with U251 CNS was greater than 100 µM each time.
With `Cc1[nH]c2ccccc2c1C1=CC(=O)N(c2ccccc2)C1=O`, the TGI in the experiment with MCF7 breast was 48.1 µM; in the experiment on RPMI-8226 leukemia it was greater than 100 µM; with UACC-62 melanoma, 26.9 µM; in the experiment on BT-549 breast it was greater than 100 µM; with HOP-62 NSCLC it was 25.5 µM; in the experiment with HOP-92 NSCLC, 50.9 µM. For the same compound, the TGI stood at 26.6 µM in the experiment on RXF 393 renal, 37.8 µM in the experiment on SW-620 colon, 39.4 µM with NCI-H460 lung and 47.7 µM in the experiment with U251 CNS.
As to `CC(=O)NC1C(OCc2ccccc2)OC(CO)C(O)C1OCC(=O)N1CCCC1C(=O)NC(CCC(=O)NCCCCCNc1c2ccccc2nc2cccc([N+](=O)[O-])c12)C(N)=O` (stereo unspecified), the TGI in the experiment with MCF7 breast worked out at 0.502 µM; in the experiment with RPMI-8226 leukemia, 0.789 µM; in the experiment with UACC-62 melanoma, 0.0751 µM; in the experiment on HOP-62 NSCLC, 0.125 µM; in the experiment with HOP-92 NSCLC, 0.101 µM; in the experiment with MDA-N, 0.0499 µM. Further, the TGI with RXF 393 renal was determined as 0.0253 µM; in the experiment on SW-620 colon, 0.0424 µM; with NCI-H460 lung, 0.0171 µM; in the experiment on U251 CNS, 0.206 µM.
With `CC1(C)N=C(Oc2ccccc2)n2nccc2N1`, the TGI in the experiment on RPMI-8226 leukemia, in the experiment on UACC-62 melanoma, in the experiment with HOP-62 NSCLC, with HOP-92 NSCLC, with RXF 393 renal and in the experiment with SW-620 colon was greater than 100 µM in each case. In addition, the TGI in the experiment on NCI-H460 lung and in the experiment on U251 CNS was greater than 100 µM throughout.
On to `Cc1ccc(F)c2c(=O)cc(-c3ccccc3)[nH]c12`, for which the TGI in the experiment on RPMI-8226 leukemia, in the experiment with UACC-62 melanoma, in the experiment with HOP-62 NSCLC, in the experiment with HOP-92 NSCLC, in the experiment with RXF 393 renal and in the experiment on SW-620 colon was greater than 100 µM each time. The TGI in the experiment with NCI-H460 lung and in the experiment on U251 CNS was greater than 100 µM each time.
Consider `CC1=C(C)C(=O)C(C2=C(C3=CC(=O)C(C)=C(C)C3=O)C(=O)c3ccccc3C2=O)=CC1=O`, for which the TGI with RPMI-8226 leukemia was 18 µM; in the experiment on UACC-62 melanoma it was 4.62 µM; in the experiment on BT-549 breast it was 7.16 µM; with HOP-62 NSCLC it was 31.8 µM; with HOP-92 NSCLC, 6.72 µM; in the experiment with MDA-N, 3.6 µM. Further, the TGI in the experiment with RXF 393 renal worked out at 3.38 µM; in the experiment on SW-620 colon, 4.99 µM; with NCI-H460 lung it was 37.7 µM; with U251 CNS, 12.6 µM.
On to `CC#Cc1c(C#CC)c(OC)c2c(c1OC)C(=O)c1ccccc1C2=O`, for which the TGI with RPMI-8226 leukemia is greater than 100 µM; with UACC-62 melanoma, greater than 100 µM; in the experiment with HOP-62 NSCLC, 45.4 µM; in the experiment on RXF 393 renal, 55.1 µM; with SW-620 colon, greater than 100 µM; in the experiment with NCI-H460 lung it was greater than 100 µM. The same compound displayed a TGI in the experiment on U251 CNS of 48 µM.
As for `Cc1cc(C(O)CNC(C)CCn2cnc3c2c(=O)n(C)c(=O)n3C)ccc1O` (stereo unspecified), the TGI in the experiment with MCF7 breast, in the experiment with RPMI-8226 leukemia, with UACC-62 melanoma, in the experiment on BT-549 breast, with HOP-62 NSCLC and in the experiment with HOP-92 NSCLC was greater than 100 µM in each case. Also, the TGI in the experiment with RXF 393 renal, with SW-620 colon, in the experiment on NCI-H460 lung and in the experiment on U251 CNS was greater than 100 µM throughout.
As to `CC(C)(C)N=c1n(C(C)(C)C)oc(=O)n1-c1ccccc1`, the TGI with MCF7 breast, with RPMI-8226 leukemia, in the experiment on UACC-62 melanoma, in the experiment with HOP-62 NSCLC, with HOP-92 NSCLC and with MDA-N was greater than 50 µM each time. Besides, the TGI with RXF 393 renal, in the experiment on SW-620 colon, in the experiment with NCI-H460 lung and with U251 CNS was greater than 50 µM throughout.
`CSc1nc(-c2ccc(Cl)cc2)c(C#N)c(=O)[nH]1`: the TGI was greater than 100 µM with MCF7 breast; greater than 100 µM in the experiment with RPMI-8226 leukemia; greater than 100 µM in the experiment with UACC-62 melanoma; greater than 100 µM in the experiment on BT-549 breast; greater than 100 µM with HOP-62 NSCLC; 97.7 µM in the experiment on HOP-92 NSCLC. The TGI in the experiment with RXF 393 renal, in the experiment with SW-620 colon, in the experiment on NCI-H460 lung and with U251 CNS was greater than 100 µM throughout.
Regarding `c1cc(C[S+]2CCCC2)oc1C[S+]1CCCC1`, the TGI with UACC-62 melanoma, with BT-549 breast, in the experiment on HOP-62 NSCLC, in the experiment on MDA-N, in the experiment on RXF 393 renal and in the experiment with SW-620 colon was greater than 100 µM each time. Moreover, the TGI with NCI-H460 lung and in the experiment on U251 CNS was greater than 100 µM in each case.
Turning to `COc1ccccc1Cn1[nH]c(=O)c2cc([N+](=O)[O-])ccc21`, the TGI in the experiment with RPMI-8226 leukemia is greater than 100 µM; in the experiment with UACC-62 melanoma it was greater than 100 µM; in the experiment on HOP-62 NSCLC, greater than 100 µM; with HOP-92 NSCLC it was 93.4 µM; in the experiment with MDA-N it was greater than 100 µM; with RXF 393 renal, 82.6 µM. Further, the TGI in the experiment with SW-620 colon and in the experiment with NCI-H460 lung was greater than 100 µM in each case.
Regarding `CC[C@H](C)[C@H]1NC(=O)[C@@H](NC(=O)[C@@H](CC(C)C)N(C)C(=O)C2CCCN2C(=O)[C@H](C)O)[C@@H](C)OC(=O)[C@H](Cc2ccccc2)N(C)C(=O)[C@@H]2CCCN2C(=O)[C@H](CC(C)C)NC(=O)[C@@H](C)C(=O)[C@H](C(C)C)OC(=O)C[C@@H]1O` (stereo partly specified), the TGI with MCF7 breast was 0.0641 µM; in the experiment with UACC-62 melanoma, less than 0.00625 µM; with BT-549 breast, less than 0.00625 µM; in the experiment on HOP-62 NSCLC, 0.0639 µM; in the experiment with MDA-N it was 0.109 µM; in the experiment with RXF 393 renal, 0.0179 µM. Moreover, the TGI with SW-620 colon is greater than 62.5 µM; with NCI-H460 lung it was less than 0.00625 µM.
On to `CCCOP(=S)(N1CC1)N1CC1`, for which the TGI with RPMI-8226 leukemia, with UACC-62 melanoma, in the experiment with HOP-62 NSCLC, in the experiment with HOP-92 NSCLC, with RXF 393 renal and in the experiment with SW-620 colon was greater than 100 µM each time. For the same compound, the TGI in the experiment on NCI-H460 lung and in the experiment on U251 CNS was greater than 100 µM throughout.

The values above are taken from PubChem BioAssay (NCI).
